Results published in PMC10463376, “Design, synthesis, in vitro anticancer, molecular docking and SAR studies of new series of pyrrolo[2,3-d]pyrimidine derivatives” (BMC Chemistry, 2023).
Entries after “also recorded” stand apart in the source; their conditions may differ.

Experiments:
Type in all cases: cell-based, human
[1] = tested on: DR4; test: RT-qPCR DR4 mRNA in Paca2; details: 17 vs both Dox. and negative control
Protocol: (§1) All of the extractions were conducted on ice with ice-cold reagents. Total RNA from the different cell lines was isolated using Trizol (Invitrogen; Life Technologies, USA) according to the method of Sthoeger et al.. The 260:280 ratios were measured to determine RNA quality after the isolation method was completed according to the manufacturer’s instructions. A high-capacity cDNA reverse transcription kit was used to produce complementary DNA (cDNA) (Applied Biosystems, USA). […] The relative gene expression method (i.e., ΔΔCT) was used to analyze the real-time PCR data, as explained in Applied Biosystem User Bulletin No. 2. Each sample and gene were normalized using the β-actin gene.

[2] = tested on: P53; test: RT-qPCR P53 mRNA in A549; details: A549, vs negative control
Protocol: as §1

[3] = tested on: BAX; test: RT-qPCR BAX mRNA in Paca2; details: 17 vs both Dox. and negative control
Protocol: as §1

[4] = tested on: BAX; test: RT-qPCR BAX mRNA in A549; details: A549, vs negative control
Protocol: as §1

[5] = tested on: pancreatic cell line (Paca2); test: DNA fragmentation assay, Paca2; details: Paca2, IC50, 24 h, vs negative control (P < 0.01); 17 higher than Dox.
Protocol: The DNA fragmentation assay in a pancreatic cell line (Paca2), breast cancer cell lines (MCF-7) and lung cell line (A549) was performed in concordance with the premises established by Yawata with some modifications. Briefly, after 24 h of exposure of Paca2, MCF-7 and A549 cancer cell lines to the prepared compounds in different Petri dishes (60 × 15 mm, Greiner), the cells were suspended and homogenized in 1 ml of medium and then centrifuged for 10 min at 900 rpm. The genomic DNA was extracted as shown in Yawata. About 1 × 10^6 cells of each tested cancer cell line were treated with the IC50 values of the tested compounds. All the cells were collected via trypsinization and washed with Dulbecco`s Phosphate Buffered Saline. Then, the cells were treated with the lysis buffer containing 5 mM ethylenediaminetetraacetic acid (EDTA), 10 mM Tris (pH 7.4), 0.5% Triton X-100 and 150 mM NaCl for 35 min on ice. […] Finally, the percentage of fragmented DNA was determined by performing gel electrophoresis using 2% agarose gel containing 0.1 μg/ml ethidium bromide.
Pancreatic cancer cell line (Paca2), breast cancer cell line (MCF-7) and lung cancer cell line (A549) were used to determine the percentage of DNA fragmentation after the treatment with IC50 of the tested compounds. […] The percentage of fragmented DNA was measured from the absorbance reading at 600 nm wavelength using the following formula: […]

[6] = tested on: Casp-3; test: RT-qPCR Casp-3 mRNA in Paca2; details: 17 vs both Dox. and negative control
Protocol: as §1

[7] = tested on: Bcl-2; test: RT-qPCR Bcl-2 mRNA in A549; details: A549, vs negative control
Protocol: as §1

[8] = tested on: DR5; test: RT-qPCR DR5 mRNA in A549
Protocol: as §1

[9] = tested on: caspase 3; test: ELISA caspase 3 in A549 cells; details: control 6.32
Source text: Elisa assay was used to determine the concentrations of Human caspases-3, -8, Bax, and Bcl2 in PACA2- and A549-treated cells. Also, the concentrations of caspase-8, Bax, and Bcl2 in MCF7-treated cells were detected. The procedures were followed up according to the instructions described in the following kits; Invitrogen human Caspase-3 Elisa Kit, Catalog KHO1091, DRG® human Caspase-8 ELISA Kit, Catalog (EIA-4863), Human Bax ELISA Kit (ab199080) and Human Bcl-2 ELISA Kit (ab119506) respectively. Shortly, the protocol described in the above kits was as followed; at the beginning, all the reagents, samples and standards were prepared. 100 μl of samples or standard were micro pipetted to each well of micro-well strip and kept at room temperature for 2 h. After washing the micro-well strips three times with washing buffer, the prepared antibody (anti-rabbit-IgG-HRP) at a concentration of 100 μl was added to each well at room temperature for 1 h. Then, the micro-well strips were washed again three times. Afterward, the prepared tetramethyl-benzidine (TMB) solution (100 μl) was added to the micro-well strips and kept for 10 min. […] The absorbance of all samples was measured at a wavelength of 460 nm and compared to that of the standard. Curve fitting software was used to plot a standard curve and the concentrations for the unknown samples were measured from the standard curve.

[10] = tested on: MCF7 cells; test: Flow cytometric cell cycle analysis (PI), MCF7; details: MCF7, 24 h, IC50 concentration; for cell cycle arrest (phase): vs untreated control; for percentage of cells in the G0/G1 phase: control 11.43%
Protocol: Herein, the negative control was the untreated MCF7 cells and Doxorubicin was used as a positive control. Firstly, after the treatment time of 24 h, MCF7 cells were centrifuged at 1000 rpm for 5 min at 4 °C. The supernatant was discarded and the cells pellet were washed in phosphate-buffered saline (PBS). Then, the cells pellet were centrifuged at 1000 rpm for another 5 min. Afterward, the cells were collected in a single-cell suspension and maintained in 70% ethanol overnight on ice. Then, cells were washed with 1 ml PBS. At last, 200 µl 1 × propidium iodide (PI) mixture was added to the cells pellet in the dark at room temperature for 30 min. Then, the DNA content was analyzed by subjecting the cells to an Epics XL-MCL flow cytometer (Beckman Coulter, Miami, FL). The distribution of cells at different phases of the cell cycle was determined by Multi-cycle software (Phoenix Flow Systems, San Diego, CA).

| SMILES | DR4 mRNA level [1] | P53 mRNA level [2] | BAX mRNA level [3] | BAX mRNA level [4] | DNA fragmentation rate [5] | Casp-3 mRNA level [6] | Bcl-2 mRNA level [7] | DR5 mRNA level [8] | caspase 3 level (ELISA) [9] | cell cycle arrest (phase) [10] | percentage of cells in the G0/G1 phase [10] |
| --- | --- | --- | --- | --- | --- | --- | --- | --- | --- | --- | --- |
| COc1cccc2c1C(=O)c1c(O)c3c(c(O)c1C2=O)C[C@@](O)(C(=O)CO)C[C@@H]3O[C@H]1C[C@H](N)[C@H](O)[C@H](C)O1 [Dox, Doxorubicin, reference compound] | no significant difference | up-regulated | no significant difference | up-regulated | increased significantly | no significant difference | down-regulated | up-regulated | – | – | – |
| COc1ccc(-c2c(Cl)n(-c3ccc(Cl)cc3Cl)c3ncnc(Cl)c23)cc1OC [Compound 4b, 4,6-dichloro-7-(2,4-dichlorophenyl)-5-(3,4-dimethoxyphenyl)-7H-pyrrolo[2,3-d]pyrimidine] | – | up-regulated | – | up-regulated | – | – | down-regulated | up-regulated | 12.12 pg/mL | – | – |
| CN1CCN(c2nc(C(Cl)(Cl)Cl)nc3c2c(-c2ccc(Br)cc2)c(Cl)n3-c2ccc(Cl)cc2Cl)CC1 [Compound 17, 5-(4-bromophenyl)-6-chloro-7-(2,4-dichlorophenyl)-4-(4-methylpiperazin-1-yl)-2-(trichloromethyl)-7H-pyrrolo[2,3-d]pyrimidine] | up-regulated | – | up-regulated | – | increased significantly | up-regulated | – | – | – | – | – |
| COc1ccc(-c2c(Cl)n(-c3ccc(Cl)cc3Cl)c3ncnc(NN)c23)cc1OC [Compound 14b, 6-chloro-7-(2,4-dichlorophenyl)-5-(3,4-dimethoxyphenyl)-4-hydrazineyl-7H-pyrrolo[2,3-d]pyrimidine] | – | – | – | – | – | – | – | – | – | G1 and S phases; also recorded: G1/S phase | 85.98% |
| NNc1ncnc2c1c(-c1ccc(Br)cc1)c(Cl)n2-c1ccc(Cl)cc1Cl [Compound 14a, 5-(4-bromophenyl)-6-chloro-7-(2,4-dichlorophenyl)-4-hydrazineyl-7H-pyrrolo[2,3-d]pyrimidine] | – | – | – | – | – | – | – | – | – | G1 and S phases; also recorded: G1/S phase | 68.60% |
